PubChem BioAssay AID179 (DTP/NCI, 2004)
Where “and” joins values, the source holds several entries; their conditions need not be identical. Equal entries are not always repeated. Calls of active or inactive are those of the source.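 The calls were made as follows: active = compounds giving half or more protection of infected cells from virus-caused growth loss, again on retest; inactive = the rest.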

System: CEM cells HIV-1 protection, formazan growth assay
Experiment: NCI AIDS Antiviral Assay
Settings: for IC50: measured here: growth of uninfected CEM cells
Method in brief: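 Human CEM cells, uninfected and HIV-1-infected, exposed to five drug concentrations; growth measured by soluble formazan assay and scored as percent protection from infection, with protecting compounds retested.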

Row | SMILES | EC50 | IC50 | outcome
1 | CCOC(=O)c1oc2cc(O)cc(O)c2c(=O)c1-c1ccc(OC)cc1 | > 200 µM | 21.9 µM | –
2 | CCC1CC(C)=CCN1S(=O)(=O)c1ccc(C)cc1 (stereo unspecified) | > 18.6 µM | > 18.6 µM | –
3 | COc1ccc2[nH]cc(CCNC(C)=O)c2c1 | > 200 µM | > 200 µM | –
4 | O=P(O)(O)c1ccc2c(c1)OCCOCCOCCOCCO2 | > 200 µM | > 200 µM | –
5 | O=C(Nc1ccc(Cl)c(C(F)(F)F)c1)C(=O)C(C(=O)/C=C/c1ccccc1)C1OC(=O)c2ccccc21 (stereo unspecified) | > 129 µM | 20.9 µM | –
6 | COc1cc(Cl)cc(N(O)C(C)=O)c1OCc1ccccc1 | > 562 µM | 58.9 µM | –
7 | C1CCc2nnnn2CC1 | > 200 µM and 120 µM | > 200 µM and 724 µM | –
8 | Cc1ccc2c(c1)C(=O)c1cc(C)cc(C(=O)O)c1-2 | > 200 µM | > 200 µM | –
9 | CCCNC(=O)c1cc2ccccc2cc1C(=O)OC | > 5.37 µM | > 5.37 µM | –
10 | COc1ccc2c3csc4ccccc4c-3nc2c1 | > 200 µM | 0.427 µM | –
11 | C/C=C1\C[C@@H]2C(OC)Nc3cc(O)c(OC)cc3C(=O)N2C1 (stereo partly specified) | > 813 µM | 0.263 µM | –
12 | O=C(O)c1ccc(Nc2cnc3ccc(C(F)(F)F)cc3n2)cc1 | > 200 µM | 11.2 µM | –
13 | COC1(O)C(=O)c2ccccc2OC1(OC)c1ccccc1 (stereo unspecified) | > 200 µM | 112 µM | –
14 | C[C@]12CCC(=O)O[C@H]1CCCCO2 | > 200 µM | > 200 µM | –
15 | NCCNC(=O)CN(CC(=O)O)C1CCCCC1N(CC(=O)O)CC(=O)O (stereo unspecified) | > 200 µM | > 200 µM | –
16 | CC(C)C(=O)CC(Sc1ccc(N)cc1)c1ccccc1 (stereo unspecified) | > 200 µM | 87.1 µM | –
17 | O=S1(=O)C[C@@H](O)[C@H](O)CS1 | 16.2 µM | 166 µM | –
18 | COc1cc2c(cc1OC)[C@H](C)N1CCc3cc(OC)c(OC)cc3[C@@H]1C2 | > 200 µM | > 200 µM | –
19 | O=C(/C=C/c1ccc(O)c(O)c1)O[C@H](C(=O)O)[C@H](OC(=O)/C=C/c1ccc(O)c(O)c1)C(=O)O | > 85.1 µM | 20 µM | –
20 | C=C[C@]1(O)CCC[C@]2(C)C(=O)CCC12C (stereo partly specified) | – | – | inactive
21 | COc1cccc2c(Nc3ccc(S(=O)(=O)Nc4ncccn4)cc3)c3ccc([N+](=O)[O-])cc3nc12 | > 100 µM | > 100 µM | –
22 | CC12CCC3c4cc(Br)c(O)c(Br)c4CCC3C1CCC2O (stereo unspecified) | > 200 µM | 6.76 µM | –
23 | C=CCCCCCCCCCC(C(=O)O)C(=O)O | > 977 µM | 550 µM | –
24 | Cc1c(NC(=O)CSC(=S)N(C)C)c(=O)n(-c2ccccc2)n1C | 89.1 µM | > 200 µM | –

Row | SMILES | EC50 | IC50 | outcome
25 | Cc1cc(=O)n2nc(CSc3n[nH]c(=S)s3)sc2n1 | > 200 µM | > 200 µM | –
26 | Cc1ccc(C2(C)CC(C)(C)c3ccc(C)cc3O2)c(O)c1 (stereo unspecified) | > 200 µM | 20.4 µM | –
27 | Cc1ccc(NC(=O)CCc2nnc3s/c(=C\C=C\c4ccccc4)c(=O)n23)cc1 | > 61.7 µM | > 61.7 µM | –
28 | CC1=CC(c2ccccc2)OP1(=O)c1ccccc1 (stereo unspecified) | > 200 µM | > 200 µM | –
29 | Oc1c(-c2ccccc2)nc2cnccn12 | > 447 µM | > 447 µM | –
30 | O=C(Cn1c2ccc(Br)cc2c2nc3ccccc3nc21)N1CCOCC1 | > 100 µM | > 100 µM | –
31 | OC1(c2ccccc2)c2ccccc2CCC1Br (stereo unspecified) | > 200 µM | 56.2 µM | –
32 | Clc1ccc(Nc2nc(Cl)c3[nH]cnc3n2)cc1Cl | > 200 µM | 63.1 µM | –
33 | CC(=O)Nc1ccc(S(=O)(=O)NCCSSCCNS(=O)(=O)c2ccc(NC(C)=O)cc2)cc1 | > 200 µM | > 200 µM | –
34 | N#Cc1c(-c2ccc(Cl)cc2)c(C#N)c(=O)n(NS(=O)(=O)c2ccccc2)c1O | > 200 µM | > 200 µM | –
35 | Cn1c2ccccc2c2[nH]c3ccccc3c(=O)c21 | > 200 µM | 13.8 µM | –
36 | NC(=O)NN=C1CSSC1 | 18.6 µM | 70.8 µM | –
37 | O=C1C(Cl)C(c2ccc(O)cc2)N1n1cnc2ccccc2c1=O (stereo unspecified) | > 15.1 µM | > 15.1 µM | –
38 | O=NNc1nc(-c2ccccn2)nc2ccccc12 | > 200 µM | 7.94 µM | –
39 | NC1=NCCS1 | > 70.8 µM | > 70.8 µM and 32.4 µM | –
40 | CN(C)CCN(C)CCC(=O)/C=C/c1ccccc1 | – | – | inactive
41 | COC(=O)C1=C(N)C2=C(N)Oc3ccccc3C2CC1=C(C#N)C#N (stereo unspecified) | > 200 µM | 47.9 µM | –
42 | O=S(=O)([N-]c1nc2ccccc2nc1-[n+]1ccccc1)c1ccccc1 | > 100 µM | > 100 µM | –
43 | Cc1cc2n(n1)C(C)(C)C(=O)Nc1ccc(Cl)cc1-2 | > 49 µM | 33.9 µM | –
44 | COc1ccc(N2C(=O)CC(c3c[nH]c4ncccc34)C2=O)cc1 (stereo unspecified) | > 200 µM | 42.7 µM | –
45 | COC1CCCCC1C(N)C(=O)O (stereo unspecified) (tested in a mixture with another compound) | > 200 µM | > 200 µM | –
46 | COc1ccc(/C=N/N/C(O)=c2/sc(=C(C#N)C#N)n(-c3ccccc3)c2=N)cc1 | > 9.12 µM | > 9.12 µM | –
47 | O=C(O)CCN(CCC(=O)O)CCN(CCC(=O)O)CCC(=O)O | > 589 µM | > 589 µM | –
48 | CN(C)CCCN1CCC2(CCSCC2)C1 | > 186 µM | 87.1 µM | –

Row | SMILES | EC50 | IC50 | outcome
49 | COc1cc(Nc2nc3ccc(C(F)(F)F)cc3nc2C(=O)O)cc(OC)c1OC | > 200 µM | 27.5 µM | –
50 | CCC1OC2C(CC=C(C)C)=C3OC(C)(O)C(C)(CC)C(O)C3=C3OC(=O)C=C1C32 (stereo unspecified) | > 200 µM | 30.9 µM | –
51 | COc1cc(/C=N\NS(=O)(=O)c2ccc(N)cc2)ccc1O | > 295 µM | 209 µM | –
52 | Cc1cn(C2CC(F)C(CO)O2)c(=O)[nH]c1=O (stereo unspecified) | 0.011 µM | 2 µM | –
53 | Clc1cc2nc[nH]c2cc1Cl | > 269 µM | 141 µM | –
54 | NC(c1ccccc1)P(=O)(O)O (stereo unspecified) | > 200 µM | > 200 µM | –
55 | C=CC1(c2ccc(Cl)c(Cl)c2)OCCO1 | > 200 µM | 166 µM | –
56 | CCOC(=O)c1c(NS(=O)(=O)c2ccccc2)sc2c1CCCC2 | – | – | inactive
57 | NCCNc1ccc([N+](=O)[O-])c2c(=O)c3ccccc3[nH]c12 | – | – | inactive
58 | Cc1cccc(C)c1NC(=O)C(=O)C(c1ccccc1Cl)S(=O)(=O)Cc1ccccc1Cl (stereo unspecified) | 151 µM | > 200 µM | –
59 | COc1ccccc1C(N)c1ccccc1 (stereo unspecified) | > 501 µM | 89.1 µM | –
60 | Cn1c(=O)c2nc3c(=O)n(C)c(=O)n(C)c3nc2n(C)c1=O | > 200 µM | 79.4 µM | –
61 | CC(C)OC(=S)Nc1ccc(Cl)c(COC(C)(C)C)c1 | 5.37 µM | 31.6 µM | –
62 | COc1ccc(NC2=CC(C)(C(=O)O)OC2=O)cc1 (stereo unspecified) | > 200 µM | > 200 µM | –
63 | CC[P+](C#Cc1ccccc1)(c1ccccc1)c1ccccc1 | > 20 µM | 0.49 µM | –
64 | CC(=O)CC(C)(C)S(=O)(=O)O | > 200 µM | > 200 µM | –
65 | NC(=S)N/N=C1\CCCc2ccccc21 | > 162 µM | 81.3 µM | –
66 | CC(=O)SC1CC(=O)OC1=O (stereo unspecified) | > 200 µM | > 200 µM | –
67 | CS(=O)(=O)OCC1CCCCCCCCCCC12SCCCS2 (stereo unspecified) | > 200 µM | > 200 µM | –
68 | CCN(CC)CCN1CCNc2c3cc(OC)ccc3nc3c([N+](=O)[O-])ccc1c23 | > 100 µM | 1.58 µM | –
69 | CNc1nc(N)c(N=O)c(Nc2ccc(Br)cc2)n1 | > 200 µM | 170 µM | –
70 | Cc1nn(C(=O)c2ccncc2)c2c1C(c1ccc(Cl)cc1)SC(N)=N2 (stereo unspecified) | > 200 µM | 30.9 µM | –
